Assay results from patent US12448389B2, “BRM targeting compounds and associated methods of use” (Prelude Therapeutics Incorporated, priority 2020, dated 2025).

How the values were obtained:
[1] = target: T1, SMARCA2-HiBiT (Homo sapiens, UniProt P51531); experiment: SMARCA2 HiBiT degradation assay in HeLa cells; format: cell-based; details: 18 hours incubation; for DC50: read-out: HeLa_HiBit-SM2 DC50; for Dmax: HeLa, read-out: HeLa-HiBit-SM2 Dmax (%)
T1 construct: SMARCA2-HiBiT knock-in Hela monoclonal cell (CS302366); host or cells: HeLa monoclonal knock-in line (CRISPR HiBiT knock-in at the endogenous locus, heterozygous)
Summary of the method: (§1)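 HeLa monoclonal lines with heterozygous HiBiT knock-in were seeded at 2500 cells/well in EMEM with 10% FBS and treated with compound for 18 h at 37 °C. Remaining tagged protein was measured by Nano-Glo HiBiT lytic luminescence after 30–60 min at RT, and values came from curve fitting.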

[2] = target: T2, SMARCA4-HiBiT (Homo sapiens, UniProt P51532); experiment: SMARCA4 HiBiT degradation assay in HeLa cells; format: cell-based; details: 18 hours incubation; for DC50: read-out: HeLa-HiBit-SM4 DC50; for Dmax: HeLa, read-out: HeLa-HiBit-SM4 Dmax (%)
T2 construct: SMARCA4-HiBiT knock-in Hela monoclonal cell (CS3023226); host or cells: HeLa monoclonal knock-in line (CRISPR HiBiT knock-in at the endogenous locus, heterozygous)
Summary of the method: as §1

T2 sequence (P51532 whole entry): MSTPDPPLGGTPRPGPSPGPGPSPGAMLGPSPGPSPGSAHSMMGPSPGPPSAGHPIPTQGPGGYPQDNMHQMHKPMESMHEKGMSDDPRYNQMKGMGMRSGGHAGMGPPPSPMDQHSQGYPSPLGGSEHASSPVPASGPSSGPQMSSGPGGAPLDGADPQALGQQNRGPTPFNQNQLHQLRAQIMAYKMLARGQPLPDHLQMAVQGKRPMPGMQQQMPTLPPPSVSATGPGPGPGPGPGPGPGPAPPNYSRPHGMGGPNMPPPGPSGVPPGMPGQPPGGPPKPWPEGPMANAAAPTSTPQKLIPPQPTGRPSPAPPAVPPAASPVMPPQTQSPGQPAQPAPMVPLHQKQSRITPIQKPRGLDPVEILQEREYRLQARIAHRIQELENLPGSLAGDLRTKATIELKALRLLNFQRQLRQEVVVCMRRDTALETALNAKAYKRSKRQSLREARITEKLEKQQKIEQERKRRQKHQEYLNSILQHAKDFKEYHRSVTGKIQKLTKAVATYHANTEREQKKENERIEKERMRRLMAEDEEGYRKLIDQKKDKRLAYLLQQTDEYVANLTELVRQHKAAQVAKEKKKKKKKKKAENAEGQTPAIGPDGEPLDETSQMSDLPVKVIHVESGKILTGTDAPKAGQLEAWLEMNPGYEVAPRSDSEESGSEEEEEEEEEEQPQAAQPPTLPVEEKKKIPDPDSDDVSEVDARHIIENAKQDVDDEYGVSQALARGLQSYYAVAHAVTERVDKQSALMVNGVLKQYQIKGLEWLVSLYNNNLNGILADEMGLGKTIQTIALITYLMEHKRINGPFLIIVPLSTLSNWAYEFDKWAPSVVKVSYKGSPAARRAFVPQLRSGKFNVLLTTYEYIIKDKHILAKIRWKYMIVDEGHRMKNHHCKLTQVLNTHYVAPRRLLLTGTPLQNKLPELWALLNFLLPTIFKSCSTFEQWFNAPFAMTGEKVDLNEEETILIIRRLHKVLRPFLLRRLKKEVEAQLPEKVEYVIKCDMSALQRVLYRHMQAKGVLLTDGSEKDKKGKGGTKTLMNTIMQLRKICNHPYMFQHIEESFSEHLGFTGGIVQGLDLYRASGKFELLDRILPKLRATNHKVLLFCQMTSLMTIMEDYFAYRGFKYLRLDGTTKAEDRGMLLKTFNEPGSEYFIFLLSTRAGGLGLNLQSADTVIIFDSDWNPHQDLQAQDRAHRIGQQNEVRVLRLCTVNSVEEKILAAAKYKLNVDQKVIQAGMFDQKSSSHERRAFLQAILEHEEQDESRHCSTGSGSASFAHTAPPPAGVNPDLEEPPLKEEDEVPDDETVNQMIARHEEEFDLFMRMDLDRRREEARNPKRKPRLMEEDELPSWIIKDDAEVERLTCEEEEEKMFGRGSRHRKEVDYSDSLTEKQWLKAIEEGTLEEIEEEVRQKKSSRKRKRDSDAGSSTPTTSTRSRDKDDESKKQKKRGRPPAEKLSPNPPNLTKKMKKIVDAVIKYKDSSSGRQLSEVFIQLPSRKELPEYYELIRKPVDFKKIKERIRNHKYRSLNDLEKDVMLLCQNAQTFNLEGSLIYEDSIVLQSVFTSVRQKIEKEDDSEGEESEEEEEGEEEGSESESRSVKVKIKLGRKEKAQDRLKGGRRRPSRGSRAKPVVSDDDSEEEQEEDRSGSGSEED
T1 sequence (P51531 whole entry): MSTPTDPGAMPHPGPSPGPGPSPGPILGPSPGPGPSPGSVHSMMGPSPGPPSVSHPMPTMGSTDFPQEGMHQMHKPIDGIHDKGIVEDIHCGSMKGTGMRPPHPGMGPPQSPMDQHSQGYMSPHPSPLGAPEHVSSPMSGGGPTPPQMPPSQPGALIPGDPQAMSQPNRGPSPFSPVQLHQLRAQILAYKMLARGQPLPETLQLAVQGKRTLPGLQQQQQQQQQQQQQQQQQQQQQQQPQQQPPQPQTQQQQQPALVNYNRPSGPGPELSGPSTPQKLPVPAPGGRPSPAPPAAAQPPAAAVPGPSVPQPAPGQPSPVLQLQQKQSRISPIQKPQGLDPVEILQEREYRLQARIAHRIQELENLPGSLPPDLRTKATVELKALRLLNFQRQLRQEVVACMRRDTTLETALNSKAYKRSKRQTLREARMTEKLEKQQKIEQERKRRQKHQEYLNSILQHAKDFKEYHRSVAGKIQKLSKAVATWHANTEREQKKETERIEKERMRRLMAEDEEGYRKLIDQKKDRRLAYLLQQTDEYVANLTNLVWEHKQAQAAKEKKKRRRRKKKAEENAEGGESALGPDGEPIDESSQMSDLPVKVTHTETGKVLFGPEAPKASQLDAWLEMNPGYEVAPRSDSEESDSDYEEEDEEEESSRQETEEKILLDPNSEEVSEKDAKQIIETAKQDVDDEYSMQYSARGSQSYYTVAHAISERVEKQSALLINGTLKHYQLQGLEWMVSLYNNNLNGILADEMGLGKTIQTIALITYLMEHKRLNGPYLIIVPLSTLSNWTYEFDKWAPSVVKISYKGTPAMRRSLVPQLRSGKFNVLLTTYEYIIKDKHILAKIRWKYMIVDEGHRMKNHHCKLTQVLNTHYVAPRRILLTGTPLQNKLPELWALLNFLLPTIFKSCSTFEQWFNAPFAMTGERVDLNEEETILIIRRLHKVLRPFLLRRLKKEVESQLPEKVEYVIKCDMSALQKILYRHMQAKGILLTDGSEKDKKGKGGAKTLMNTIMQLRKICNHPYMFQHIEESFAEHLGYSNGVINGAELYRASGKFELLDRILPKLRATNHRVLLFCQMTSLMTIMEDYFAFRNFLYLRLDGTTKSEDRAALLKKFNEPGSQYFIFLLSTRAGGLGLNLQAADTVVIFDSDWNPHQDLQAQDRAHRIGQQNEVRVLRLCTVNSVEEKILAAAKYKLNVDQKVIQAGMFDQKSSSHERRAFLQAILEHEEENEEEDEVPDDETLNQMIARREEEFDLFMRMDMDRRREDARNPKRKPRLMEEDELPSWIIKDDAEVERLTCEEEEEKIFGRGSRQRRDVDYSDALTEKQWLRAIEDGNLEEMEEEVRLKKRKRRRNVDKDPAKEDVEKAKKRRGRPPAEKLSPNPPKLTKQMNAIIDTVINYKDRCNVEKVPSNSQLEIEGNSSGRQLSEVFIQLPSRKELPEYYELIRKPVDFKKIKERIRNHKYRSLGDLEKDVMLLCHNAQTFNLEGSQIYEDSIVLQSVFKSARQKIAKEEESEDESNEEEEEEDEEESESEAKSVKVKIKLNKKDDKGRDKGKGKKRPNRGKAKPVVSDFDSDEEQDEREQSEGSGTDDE

DC50 [1] [nM]	Dmax [1] [%]	DC50 [2] [nM]	Dmax [2] [%]	Compound
< 10	75 to 85	< 10	75 to 85	O=C1CCC(N2C(=O)c3ccc(N4CCC(CNC5CCN(C(=O)N6CCN7c8cc(-c9ccccc9O)nnc8NC[C@H]7C6)CC5)CC4)cc3C2=O)C(=O)N1 (stereo partly drawn) [Example 140, 2-(2,6-dioxopiperidin-3-yl)-5-(4-(((l-((S)-2-(2-hydroxyphenyl)-6,6a,7,8,9,10-hexahydro-5H-pyrazino[1′,2′:4,5]pyrazino[2,3-c]pyridazine-8-carbonyl)piperidin-4-yl)amino)methyl)piperidin-1-yl)isoindoline-1,3-dione]
< 10	50 to 75	< 10	50 to 75	O=C1CCC(N2C(=O)c3ccc(N4CCC(CCN5C[C@@H]6[C@H](C5)[C@H]6CN5CCN6c7cc(-c8ccccc8O)nnc7NC[C@H]6C5)CC4)cc3C2=O)C(=O)N1 (stereo partly drawn) [Example 152, 2-(2,6-dioxopiperidin-3-yl)-5-(4-(2-((1R,5S,6r)-6-(((S)-2-(2-hydroxyphenyl)-5,6,6a,7,9,10-hexahydro-8H-pyrazino[1′,2′:4,5]pyrazino[2,3-c]pyridazin-8-yl)methyl)-3-azabicyclo[3.1.0]hexan-3-yl)ethyl)piperidin-1-yl)isoindoline-1,3-dione]
< 10	50 to 75	< 10	50 to 75	O=C1CCC(N2C(=O)c3ccc(CN4CCC(CN5CCC(CN6CCN7c8cc(-c9ccccc9O)nnc8NC[C@H]7C6)CC5)CC4)cc3C2=O)C(=O)N1 (stereo partly drawn) [Example 187, 2-(2,6-dioxopiperidin-3-yl)-5-[[4-[[4-[[(10S)-4-(2-hydroxyphenyl)-1,5,6,8,12-pentazatricyclo[8.4.0.02,7]tetradeca-2,4,6-trien-12-yl]methyl]piperidin-1-yl]methyl]piperidin-1-yl]methyl]isoindole-1,3-dione]
< 10	75 to 85	< 10	75 to 85	O=C1CCC(N2C(=O)c3ccc(N4CCC(CCN5CCC(CN6CCN7c8cc(-c9ccccc9O)nnc8NC[C@H]7C6)CC5)CC4)cc3C2=O)C(=O)N1 (stereo partly drawn) [Example 224, 2-(2,6-dioxopiperidin-3-yl)-5-(4-(2-(4-(((S)-2-(2-hydroxyphenyl)-5,6,6a,7,9,10-hexahydro-8H-pyrazino[1′,2′:4,5]pyrazino[2,3-c]pyridazin-8-yl)methyl)piperidin-1-yl)ethyl)piperidin-1-yl)isoindoline-1,3-dione]
< 10	50 to 75	< 10	50 to 75	O=C1CCC(N2C(=O)c3ccc(N4C[C@@H]5[C@@H](CN6CCC(CN7CCN8c9cc(-c%10ccccc%10O)nnc9NC[C@H]8C7)CC6)[C@@H]5C4)cc3C2=O)C(=O)N1 (stereo partly drawn) [Example 154, 2-(2,6-dioxopiperidin-3-yl)-5-((1R,5S,6s)-6-((4-(((S)-2-(2-hydroxyphenyl)-5,6,6a,7,9,10-hexahydro-8H-pyrazino[1′,2′:4,5]pyrazino[2,3-c]pyridazin-8-yl)methyl)piperidin-1-yl)methyl)-3-azabicyclo[3.1.0]hexan-3-yl)isoindoline-1,3-dione]
< 10	75 to 85	10 to 100	≤ 50	O=C1CCC(N2C(=O)c3ccc(N4CCOC(CN5CCN(C(=O)N6CCN7c8cc(-c9ccccc9O)nnc8NC[C@H]7C6)CC5)C4)cc3C2=O)C(=O)N1 (stereo partly drawn) [Example 117, 2-(2,6-dioxopiperidin-3-yl)-5-(2-((4-((S)-2-(2-hydroxyphenyl)-6,6a,7,8,9,10-hexahydro-5H-pyrazino[1′,2′:4,5]pyrazino[2,3-c]pyridazine-8-carbonyl)piperazin-1-yl)methyl)morpholino)isoindoline-1,3-dione]
< 10	> 85	< 10	> 85	O=C1CCC(N2C(=O)c3ccc(N4CCC(CN5CCO[C@@H](CN6CCN7c8cc(-c9ccccc9O)nnc8NC[C@H]7C6)C5)CC4)cc3C2=O)C(=O)N1 (stereo partly shown) [Example 74]
< 10	> 85	< 10	75 to 85	O=C1CCC(N2Cc3ccc(N4CCC(CN5CCN(C(=O)N6CCN7c8cc(-c9cc(F)ccc9O)nnc8NC[C@H]7C6)CC5)CC4)cc3C2=O)C(=O)N1 (stereo partly drawn) [Example 282, 3-(6-(4-((4-((S)-2-(5-fluoro-2-hydroxyphenyl)-6,6a,7,8,9,10-hexahydro-5H-pyrazino[1′,2′:4,5]pyrazino[2,3-c]pyridazine-8-carbonyl)piperazin-1-yl)methyl)piperidin-1-yl)-1-oxoisoindolin-2-yl)piperidine-2,6-dione]
< 10	75 to 85	< 10	75 to 85	O=C1CCC(N2C(=O)c3ccc(N4CC(CCN5CCC(CN6CCN7c8cc(-c9ccccc9O)nnc8NC[C@H]7C6)CC5)C4)cc3C2=O)C(=O)N1 (stereo partly drawn) [Example 275, 2-(2,6-dioxopiperidin-3-yl)-5-(3-(2-(4-(((S)-2-(2-hydroxyphenyl)-5,6,6a,7,9,10-hexahydro-8H-pyrazino[1′,2′:4,5]pyrazino[2,3-c]pyridazin-8-yl)methyl)piperidin-1-yl)ethyl)azetidin-1-yl)isoindoline-1,3-dione]
< 10	> 85	< 10	> 85	O=C1CCC(N2C(=O)c3ccc(C4CCN(C5CCN(CCN6CCN7c8cc(-c9ccccc9O)nnc8NC[C@H]7C6)C5)CC4)cc3C2=O)C(=O)N1 (stereo partly drawn) [Example 243, 2-(2,6-dioxopiperidin-3-yl)-5-(1-(1-(2-((S)-2-(2-hydroxyphenyl)-5,6,6a,7,9,10-hexahydro-8H-pyrazino[1′,2′:4,5]pyrazino[2,3-c]pyridazin-8-yl)ethyl)pyrrolidin-3-yl)piperidin-4-yl)isoindoline-1,3-dione]
< 10	> 85	10 to 100	75 to 85	O=C1CCC(N2C(=O)c3ccc(N4CC[C@H](CN5CCC(C(=O)N6CCN7c8cc(-c9ccccc9O)nnc8NC[C@H]7C6)CC5)[C@@H](F)C4)cc3C2=O)C(=O)N1 (stereo partly drawn) [Example 202, 2-(2,6-dioxopiperidin-3-yl)-5-[(3R,4R)-3-fluoro-4-[[4-[(10S)-4-(2-hydroxyphenyl)-1,5,6,8,12-pentazatricyclo [8.4.0.02,7]tetradeca-2(7),3,5-trien-12-carbonyl]piperidin-1-yl]methyl]piperidin-1-yl]isoindole-1,3-dione]
< 10	> 85	< 10	75 to 85	CC1CN(CC2CCN(c3ccc4c(c3)C(=O)N(C3CCC(=O)NC3=O)C4=O)CC2)CC(C)N1C(=O)N1CCN2c3cc(-c4ccccc4O)nnc3NC[C@H]2C1 (stereo partly drawn) [Example 273, 2-(2,6-dioxopiperidin-3-yl)-5-(4-((4-((S)-2-(2-hydroxyphenyl)-6,6a,7,8,9,10-hexahydro-5H-pyrazino[1′,2′:4,5]pyrazino[2,3-c]pyridazine-8-carbonyl)-3,5-dimethylpiperazin-1-yl)methyl)piperidin-1-yl)isoindoline-1,3-dione]
< 10	> 85	< 10	50 to 75	C[C@H]1CN2c3cc(-c4ccccc4O)nnc3NC[C@H]2CN1C[C@H]1[C@@H]2CN(CC3CCN(c4ccc5c(c4)C(=O)N(C4CCC(=O)NC4=O)C5=O)C[C@@H]3F)C[C@@H]21 (stereo in doubt) [Example 199, 2-(2,6-dioxopiperidin-3-yl)-5-[(3R,4R)-3-fluoro-4-[[(1S,5R)-6-[[(10S,13S)-4-(2-hydroxyphenyl)-13-methyl-1,5,6,8,12-pentazatricyclo [8.4.0.02,7]tetradeca-2(7),3,5-trien-12-yl]methyl]-3-azabicyclo [3.1.0]hexan-3-yl]methyl]piperidin-1-yl]isoindole-1,3-dione]
< 10	> 85	10 to 100	> 85	O=C1CCC(N2Cc3ccc(C4CCN(CCN5CCC(N6CCN7c8cc(-c9ccccc9O)nnc8NC[C@H]7C6)CC5)CC4)cc3C2=O)C(=O)N1 (stereo partly drawn) [Example 118, 3-(6-(1-(2-(4-((S)-2-(2-hydroxyphenyl)-5,6,6a,7,9,10-hexahydro-8H-pyrazino[1′,2′:4,5]pyrazino[2,3-c]pyridazin-8-yl)piperidin-1-yl)ethyl)piperidin-4-yl)-1-oxoisoindolin-2-yl)piperidine-2,6-dione]
< 10	> 85	< 10	> 85	O=C1CCC(N2Cc3ccc(N4CC(CN5C[C@@H]6[C@H](C5)[C@H]6CN5CCN6c7cc(-c8ccccc8O)nnc7NC[C@H]6C5)C4)cc3C2=O)C(=O)N1 (stereo partly drawn) [Example 108, 3-(6-(3-(((1R,5S,6r)-6-(((S)-2-(2-hydroxyphenyl)-5,6,6a,7,9,10-hexahydro-8H-pyrazino[1′,2′:4,5]pyrazino[2,3-c]pyridazin-8-yl)methyl)-3-azabicyclo[3.1,0]hexan-3-yl)methyl)azetidin-1-yl)-1-oxoisoindolin-2-yl)piperidine-2,6-dione]
< 10	> 85	< 10	> 85	O=C1CCC(N2C(=O)c3ccc(N4CCC(NC5CCC(CN6CCN7c8cc(-c9ccccc9O)nnc8NC[C@H]7C6)CC5)CC4)cc3C2=O)C(=O)N1 (stereo partly drawn) [Example 163, 2-(2,6-dioxopiperidin-3-yl)-5-[4-[[4-[[(10S)-4-(2-hydroxyphenyl)-1,5,6,8,12-pentazatricyclo[8.4.0.02,7]tetradeca-2,4,6-trien-12-yl]methyl]cyclohexyl]amino]piperidin-1-yl]isoindole-1,3-dione]
